# Where two headings read alike, the source gives them in different places.
# Experiments:
# HIPK2 = HIPK2 (Homo sapiens (Human), UniProt Q9H2X6); test: HIPK2 enzymatic activity inhibition (Z'-LYTE); type: biochemical; settings: read-out: HIPK2 IC50
# Experimental: HIPK2 Enzymatic Activity Inhibition: Determination of IC50 Values for Selected Compounds
# The half maximal inhibitory concentration (IC50) with respect to HIPK2 inhibition was determined for the compounds of the invention by using Z′-LYTE™ from ThermoFisher Scientific's SelectScreen™ Biochemical Kinase Profiling Service (Waltham, MA). Compounds were screened in 1% DMSO (final) in the well. For 10 point titrations, 3-fold serial dilutions were conducted from the starting concentration. The 2×HIPK2/Ser/Thr 09 mixture was prepared in 50 mM HEPES pH 7.5, 0.01% BRIJ-35, 10 mM MgCl2, 1 mM EGTA.
# 100 nL of 100× test compound in 100% DMSO, 2.4 uL of kinase buffer (50 mM HEPES pH 7.5, 0.01% BRIJ-35, 10 mM MgCl2, 1 mM EGTA), 5 uL of 2×HIPK2/Ser/Thr 09 mixture, and 2.5 uL of 4×ATP solution were mixed and agitated for 30 seconds. Then the Kinase Reaction was incubated at room temperature for 60 minutes. […] After 30 second of plate shake, the reaction plate was incubated for another 60 min at room temperature. Then the plate was read on a fluorescence plate reader (CLARIOstar, BMG Labtech, Germany) as plate reader and data was analyzed using XLfit from IDBS.
# MOLM-14 = test: AML cell viability (CellTiter-Glo, day 7); type: cell-based; settings: Homo sapiens
# Experimental: (§1) MV-4-11 cell (ATCC CRL-9591), RS4;11 (ATCC CRL-1873) and TG-1 (ATCC CRL1608) were acquired from ATCC. MOLM14 (ACC777) was acquired from DSMZ. All cells were plated (96-well) in triplicate at 5000 cells per well for testing (n=3) with compound. On day 3, an equal volume for all wells was split-back with fresh media and compound. On day 7, the CellTiter-Glo Luminescent Cell Viability Assay (Promega) was performed to measure the response. For cell viability assay, two independent experiments have been done.
# MV-4-11 = test: AML cell viability (CellTiter-Glo, day 7); type: cell-based; settings: Homo sapiens
# Experimental: as §1
# RS4;11 = test: AML cell viability (CellTiter-Glo, day 7); type: cell-based; settings: Homo sapiens
# Experimental: as §1
# TG-1 = test: AML cell viability (CellTiter-Glo, day 7); type: cell-based
# Experimental: as §1
# A204 = test: Cell viability assay (CellTiter-Glo, day 7); type: cell-based; settings: Homo sapiens, 168 h; A204, day 7
# Experimental: (§2) CLL-119, Hela, HCT116, MCF7, Colo205, SW620, H2052, MSTO-211H, U-251, Colo 357, OE33, Huh-7, A549, BT474, A204 and H290 cells were acquired from UCSF Cell and Genome Engineering Core. A549-Brm3 and H2030-Brm3 were from UCSF thoracic oncology lab. All cells were plated (96-well) in triplicate at 500 cells per well for testing (n=3) with compound. Medium was changed once on day 3. On day 7, the CellTiter-Glo Luminescent Cell Viability Assay (Promega) was performed to measure the response. For cell viability assay, two independent experiments have been done.
# A549 = test: Cell viability assay (CellTiter-Glo, day 7); type: cell-based; settings: Homo sapiens, 168 h; A549, day 7
# Experimental: as §2
# Colo205 = test: Cell viability assay (CellTiter-Glo, day 7); type: cell-based; settings: Homo sapiens, COLO 205, 168 h; Colo205, day 7
# Experimental: as §2
# Colo357 = test: Cell viability assay (CellTiter-Glo, day 7); type: cell-based; settings: Homo sapiens, 168 h; Colo357, day 7
# Experimental: as §2
# H2030-BRM3 = test: Cell viability assay (CellTiter-Glo, day 7); type: cell-based; settings: 168 h; H2030-BRM3, day 7
# Experimental: as §2
# H290 = test: Cell viability assay (CellTiter-Glo, day 7); type: cell-based; settings: NCI-H290, 168 h; H290, day 7
# Experimental: as §2
# HCT116 = test: Cell viability assay (CellTiter-Glo, day 7); type: cell-based; settings: Homo sapiens, HCT-116, 168 h; HCT116, day 7
# Experimental: as §2
# Huh-7 = test: Cell viability assay (CellTiter-Glo, day 7); type: cell-based; settings: Homo sapiens, 168 h; Huh-7, day 7
# Experimental: as §2
# MCF7 = test: Cell viability assay (CellTiter-Glo, day 7); type: cell-based; settings: Homo sapiens, 168 h; MCF7, day 7
# Experimental: as §2
# MSTO-211H = test: Cell viability assay (CellTiter-Glo, day 7); type: cell-based; settings: Homo sapiens, 168 h
# Experimental: as §2
# U-251 = test: Cell viability assay (CellTiter-Glo, day 7); type: cell-based; settings: Homo sapiens, 168 h; U-251, day 7
# Experimental: as §2
# MOLM-14 xenograft tumors = test: Western analysis / pharmacodynamics of MOLM-14 xenograft tumors; type: in vivo, mouse
# Experimental: For tissue: Tissue was homogenized and protein was extracted using T-per Mammalian protein extraction reagent (78510, Thermo Fisher Scientific). In the pharmacodynamics study, mice bearing tumors were treated with vehicle, 10 mg/kg, 50 mg/kg and 100 mg/kg for 6 hrs. After 6 hrs of treatment, tumors were removed for further procedure.
# Proteins were separated on SDS-PAGE and transferred to nitrocellulose membrane. Immunoblotting were performed using specific antibodies: phosphor-Stat1-pS727 (8826, Cell signaling), total-Stat1 (14994, Cell signaling), Phospho-Stat3 (Tyr705) (9131, Cell signaling), Stat3 (9139, Cell signaling), pSTAT5-pS726 (ab128896, abcam), stat5 (94205, cell signaling), YAP (14074, Cell signaling), CYR61(14479, Cell signaling), CTGF (ab6992, Abcam), c-Myc (13987, Cell signaling), Mcl-1 (94296, Cell signaling) and GAPDH (AM4300, Invitrogen). (FIG. 1A, FIG. 1B, FIG. 1C). MV-4-11 cancer cell line was treated with compound 29 at various concentrations (30 nM up to 10 μM) for 24 hours and 48 hours, respectively.
# Tumors from the MOLM-14 xenograft study were collected and processed for western analysis. In the western results showing above, the level of p-STAT1 (Ser727) in the three mice samples from the treated group were much lower compared to that in the three mice samples from the control group.
# [1] = tumors from MOLM-14 xenograft study, Western
# Chain of HIPK2 (Q9H2X6 whole entry): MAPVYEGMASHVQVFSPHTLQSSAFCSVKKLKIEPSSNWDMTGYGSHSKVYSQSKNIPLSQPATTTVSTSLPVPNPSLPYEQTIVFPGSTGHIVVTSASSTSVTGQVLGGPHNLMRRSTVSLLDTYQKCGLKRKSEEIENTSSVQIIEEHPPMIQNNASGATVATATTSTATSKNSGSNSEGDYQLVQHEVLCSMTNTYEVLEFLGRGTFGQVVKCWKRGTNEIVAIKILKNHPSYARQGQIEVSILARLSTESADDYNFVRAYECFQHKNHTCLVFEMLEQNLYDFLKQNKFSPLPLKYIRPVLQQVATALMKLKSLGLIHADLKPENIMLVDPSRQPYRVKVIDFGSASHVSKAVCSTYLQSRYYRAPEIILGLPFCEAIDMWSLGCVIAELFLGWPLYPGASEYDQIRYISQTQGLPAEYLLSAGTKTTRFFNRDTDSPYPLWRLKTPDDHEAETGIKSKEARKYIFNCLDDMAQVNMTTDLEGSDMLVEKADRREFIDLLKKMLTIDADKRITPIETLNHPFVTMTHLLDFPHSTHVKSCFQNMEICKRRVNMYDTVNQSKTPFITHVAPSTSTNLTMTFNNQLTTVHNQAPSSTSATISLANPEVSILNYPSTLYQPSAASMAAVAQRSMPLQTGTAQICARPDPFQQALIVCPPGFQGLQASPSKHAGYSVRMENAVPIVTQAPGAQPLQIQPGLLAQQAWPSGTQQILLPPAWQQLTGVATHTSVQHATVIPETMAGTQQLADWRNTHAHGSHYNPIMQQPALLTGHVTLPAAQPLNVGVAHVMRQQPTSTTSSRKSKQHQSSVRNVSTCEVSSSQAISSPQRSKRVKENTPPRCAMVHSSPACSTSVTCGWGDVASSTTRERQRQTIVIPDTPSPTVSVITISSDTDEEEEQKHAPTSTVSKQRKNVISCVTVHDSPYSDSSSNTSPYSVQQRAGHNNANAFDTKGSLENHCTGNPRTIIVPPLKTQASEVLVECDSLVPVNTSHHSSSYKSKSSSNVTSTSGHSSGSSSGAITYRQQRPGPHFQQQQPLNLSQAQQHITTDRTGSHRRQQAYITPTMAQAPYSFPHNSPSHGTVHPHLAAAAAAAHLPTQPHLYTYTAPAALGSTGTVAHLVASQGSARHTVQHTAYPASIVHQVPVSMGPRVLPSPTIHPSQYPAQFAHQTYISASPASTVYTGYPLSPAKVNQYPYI
compound,measurement,setting,value
"Nc1nccc2c(Br)cc3cc(C(=O)[O-])ccc3c12.[Na+] [Compound 29, Sodium 1-amino-5-bromobenzo[h]isoquinoline-8-carboxylate]",IC50,HIPK2,< 0.3 µM
same,IC50,"MOLM-14; 168 h, MOLM-14, day 7, read-out: Cell viability IC50",< 1 µM
same,IC50,"MOLM-14; MOLM-14, text statement, read-out: potency in cell viability assay",< 1 µM
same,IC50,"MV-4-11; MV4-11, 168 h, MV-4-11, day 7, read-out: Cell viability IC50",< 1 µM
same,IC50,"MV-4-11; MV4-11, MV-4-11, text statement, read-out: potency in cell viability assay",< 1 µM
same,IC50,"RS4;11; 168 h, RS4;11, day 7, read-out: Cell viability IC50",< 1 µM
same,IC50,"RS4;11; RS4;11, text statement, read-out: potency in cell viability assay",< 1 µM
same,IC50,"TG-1; TG1, 168 h, TG-1, day 7, read-out: Cell viability IC50",< 1 µM
same,IC50,"TG-1; TG1, TG-1, text statement, read-out: potency in cell viability assay",< 1 µM
same,IC50,A204,1 to 10 µM
same,IC50,A549,1 to 10 µM
same,IC50,Colo205,< 1 µM
same,IC50,Colo357,1 to 10 µM
same,IC50,H2030-BRM3,< 1 µM
same,IC50,H290,1 to 10 µM
same,IC50,HCT116,1 to 10 µM
same,IC50,Huh-7,< 1 µM
same,IC50,MCF7,1 to 10 µM
same,IC50,MSTO-211H,1 to 10 µM
same,IC50,U-251,1 to 10 µM
same,"p-STAT1 (Ser727) in tumors, pharmacodynamics study","MOLM-14 xenograft tumors; 10 mg/kg, 50 mg/kg and 100 mg/kg, 6 hrs","a dose response (10 mg/kg, 50 mg/kg and 100 mg/kg) of down regulation"
same,level of p-STAT1 (Ser727) in tumors vs control group,MOLM-14 xenograft tumors; [1],much lower
same,level of p-STAT5(Ser726) in tumors vs control group,MOLM-14 xenograft tumors; [1],lower level
